Results: PubChem BioAssay (NCI)
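Tested at 5 concentrations; 48 h exposure; 96-well plates; endpoints linearly interpolated, else capped at highest concentration. TGI denotes the concentration required for complete inhibition of growth.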

How the values were obtained:
Test in all cases: NCI tumour cell line growth inhibition, 48 h
SR leukemia = test system: SR leukemia
NCI-H226 lung = test system: NCI-H226 lung
HT29 colon = test system: HT29 colon
MDA-MB-435 = test system: MDA-MB-435
TK-10 renal = test system: TK-10 renal
U251 CNS = test system: U251 CNS
RXF-631 renal = test system: RXF-631 renal
786-0 renal = test system: 786-0 renal
SK-MEL-28 melanoma = test system: SK-MEL-28 melanoma
LOX IMVI melanoma = test system: LOX IMVI melanoma
SK-OV-3 ovarian = test system: SK-OV-3 ovarian
LXFL 529 NSCLC = test system: LXFL 529 NSCLC
RXF 393 renal = test system: RXF 393 renal
NCI-H522 lung = test system: NCI-H522 lung
SNB-78 CNS = test system: SNB-78 CNS
MDA-MB-231 breast = test system: MDA-MB-231 breast
HOP-92 NSCLC = test system: HOP-92 NSCLC
ACHN renal = test system: ACHN renal
SF-268 CNS = test system: SF-268 CNS
HL-60(TB) leukemia = test system: HL-60(TB) leukemia
MCF7 breast = test system: MCF7 breast
HS 578T breast = test system: HS 578T breast
UACC-62 melanoma = test system: UACC-62 melanoma
SW-620 colon = test system: SW-620 colon
KM20L2 colon = test system: KM20L2 colon
HOP-18 NSCLC = test system: HOP-18 NSCLC
OVCAR-4 ovarian = test system: OVCAR-4 ovarian
HCT-116 colon = test system: HCT-116 colon
SNB-75 CNS = test system: SNB-75 CNS
COLO 205 colon = test system: COLO 205 colon
MALME-3M melanoma = test system: MALME-3M melanoma
XF 498 CNS = test system: XF 498 CNS
CCRF-CEM leukemia = test system: CCRF-CEM leukemia
SF-539 CNS = test system: SF-539 CNS
OVCAR-3 ovarian = test system: OVCAR-3 ovarian
NCI/ADR-RES ovarian = test system: NCI/ADR-RES ovarian
MOLT-4 leukemia = test system: MOLT-4 leukemia
HCT-15 colon = test system: HCT-15 colon
MDA-N = test system: MDA-N
BT-549 breast = test system: BT-549 breast
SF-295 CNS = test system: SF-295 CNS
KM12 colon = test system: KM12 colon
A549 NSCLC = test system: A549 NSCLC
NCI-H460 lung = test system: NCI-H460 lung
UACC-257 melanoma = test system: UACC-257 melanoma
DMS 114 small cell lung = test system: DMS 114 small cell lung
DMS 273 small cell lung = test system: DMS 273 small cell lung
DU-145 prostate = test system: DU-145 prostate
NCI-H23 lung = test system: NCI-H23 lung
M19-MEL melanoma = test system: M19-MEL melanoma
T-47D breast = test system: T-47D breast
CAKI-1 renal = test system: CAKI-1 renal
PC-3 prostate = test system: PC-3 prostate
IGROV1 ovarian = test system: IGROV1 ovarian
DLD-1 colon = test system: DLD-1 colon
K-562 leukemia = test system: K-562 leukemia
A498 renal = test system: A498 renal
M14 melanoma = test system: M14 melanoma
SK-MEL-5 melanoma = test system: SK-MEL-5 melanoma
OVCAR-5 ovarian = test system: OVCAR-5 ovarian
RPMI-8226 leukemia = test system: RPMI-8226 leukemia
SN12C renal = test system: SN12C renal
OVCAR-8 ovarian = test system: OVCAR-8 ovarian
SNB-19 CNS = test system: SNB-19 CNS
HCC-2998 colon = test system: HCC-2998 colon
EKVX NSCLC = test system: EKVX NSCLC
UO-31 renal = test system: UO-31 renal
HOP-62 NSCLC = test system: HOP-62 NSCLC
SK-MEL-2 melanoma = test system: SK-MEL-2 melanoma

CN1C(c2ccccc2)CC(=NOCc2ccccc2)CC1c1ccccc1 (stereo not drawn)
TGI (SR leukemia): 87.1 µM | TGI (NCI-H226 lung): 84.8 µM | TGI (HT29 colon): 62.2 µM | TGI (MDA-MB-435): 39.2 µM | TGI (TK-10 renal): 70.9 µM | TGI (U251 CNS): 55.2 µM | TGI (RXF-631 renal): > 61.9 µM | TGI (786-0 renal): 53.7 µM | TGI (SK-MEL-28 melanoma): > 76.3 µM | TGI (LOX IMVI melanoma): 29.9 µM | TGI (SK-OV-3 ovarian): > 96.9 µM | TGI (LXFL 529 NSCLC): 30.8 µM | TGI (RXF 393 renal): > 84.7 µM | TGI (NCI-H522 lung): 56 µM | TGI (SNB-78 CNS): > 100 µM | TGI (MDA-MB-231 breast): > 100 µM | TGI (HOP-92 NSCLC): 81 µM | TGI (ACHN renal): 69.1 µM | TGI (SF-268 CNS): 50.4 µM | TGI (HL-60(TB) leukemia): 48.8 µM | TGI (MCF7 breast): > 56.8 µM | TGI (HS 578T breast): > 73.3 µM | TGI (UACC-62 melanoma): > 76.3 µM | TGI (SW-620 colon): > 75.4 µM | TGI (KM20L2 colon): > 100 µM | TGI (HOP-18 NSCLC): > 100 µM | TGI (OVCAR-4 ovarian): 48.9 µM | TGI (HCT-116 colon): 37.6 µM | TGI (SNB-75 CNS): 62.1 µM | TGI (COLO 205 colon): 88.6 µM | TGI (MALME-3M melanoma): > 87.8 µM | TGI (XF 498 CNS): > 100 µM | TGI (CCRF-CEM leukemia): 70.8 µM | TGI (SF-539 CNS): > 75.6 µM | TGI (OVCAR-3 ovarian): 58.7 µM | TGI (NCI/ADR-RES ovarian): 42.4 µM | TGI (MOLT-4 leukemia): 71.2 µM | TGI (HCT-15 colon): 49.2 µM | TGI (MDA-N): > 56.3 µM | TGI (BT-549 breast): 30.6 µM | TGI (SF-295 CNS): > 74.8 µM | TGI (KM12 colon): 47.9 µM | TGI (A549 NSCLC): 43 µM | TGI (NCI-H460 lung): 39.9 µM | TGI (UACC-257 melanoma): > 97 µM | TGI (DMS 114 small cell lung): 33.1 µM | TGI (DMS 273 small cell lung): > 100 µM | TGI (DU-145 prostate): > 100 µM | TGI (NCI-H23 lung): 71.5 µM | TGI (M19-MEL melanoma): > 100 µM | TGI (T-47D breast): 36 µM | TGI (CAKI-1 renal): > 80 µM | TGI (PC-3 prostate): > 66.3 µM | TGI (IGROV1 ovarian): 62.1 µM | TGI (DLD-1 colon): > 100 µM | TGI (K-562 leukemia): 44.3 µM | TGI (A498 renal): 68.8 µM | TGI (M14 melanoma): > 78 µM | TGI (SK-MEL-5 melanoma): 70.6 µM | TGI (OVCAR-5 ovarian): > 100 µM | TGI (RPMI-8226 leukemia): > 100 µM | TGI (SN12C renal): 62 µM | TGI (OVCAR-8 ovarian): 44.9 µM | TGI (SNB-19 CNS): > 56.2 µM | TGI (HCC-2998 colon): > 100 µM | TGI (EKVX NSCLC): > 69.3 µM | TGI (UO-31 renal): > 73.7 µM | TGI (HOP-62 NSCLC): > 73.3 µM | TGI (SK-MEL-2 melanoma): > 95.4 µM

COC(=O)C(C(=O)C(=O)Nc1ccc(Br)cc1)c1nc2ccc(Cl)cc2[nH]c1=O (stereo not drawn)
TGI (SR leukemia): > 100 µM | TGI (NCI-H226 lung): > 100 µM | TGI (HT29 colon): > 72.2 µM | TGI (TK-10 renal): > 100 µM | TGI (U251 CNS): > 100 µM | TGI (RXF-631 renal): > 100 µM | TGI (786-0 renal): > 100 µM | TGI (SK-MEL-28 melanoma): > 100 µM | TGI (LOX IMVI melanoma): > 100 µM | TGI (SK-OV-3 ovarian): > 100 µM | TGI (LXFL 529 NSCLC): > 100 µM | TGI (RXF 393 renal): > 100 µM | TGI (NCI-H522 lung): > 100 µM | TGI (SNB-78 CNS): > 100 µM | TGI (HOP-92 NSCLC): > 100 µM | TGI (ACHN renal): > 100 µM | TGI (SF-268 CNS): > 100 µM | TGI (HL-60(TB) leukemia): > 100 µM | TGI (UACC-62 melanoma): > 100 µM | TGI (SW-620 colon): > 41.4 µM | TGI (KM20L2 colon): > 100 µM | TGI (HOP-18 NSCLC): > 100 µM | TGI (OVCAR-4 ovarian): > 71.3 µM | TGI (HCT-116 colon): > 100 µM | TGI (SNB-75 CNS): > 100 µM | TGI (COLO 205 colon): > 61.3 µM | TGI (MALME-3M melanoma): > 100 µM | TGI (XF 498 CNS): > 100 µM | TGI (CCRF-CEM leukemia): > 100 µM | TGI (SF-539 CNS): > 100 µM | TGI (OVCAR-3 ovarian): > 100 µM | TGI (MOLT-4 leukemia): > 100 µM | TGI (HCT-15 colon): > 55.9 µM | TGI (SF-295 CNS): > 100 µM | TGI (KM12 colon): > 100 µM | TGI (A549 NSCLC): > 100 µM | TGI (NCI-H460 lung): > 100 µM | TGI (UACC-257 melanoma): > 100 µM | TGI (DMS 114 small cell lung): > 100 µM | TGI (DMS 273 small cell lung): > 100 µM | TGI (NCI-H23 lung): > 100 µM | TGI (M19-MEL melanoma): > 100 µM | TGI (CAKI-1 renal): > 100 µM | TGI (IGROV1 ovarian): > 100 µM | TGI (DLD-1 colon): > 100 µM | TGI (K-562 leukemia): > 100 µM | TGI (A498 renal): > 100 µM | TGI (M14 melanoma): > 100 µM | TGI (SK-MEL-5 melanoma): > 100 µM | TGI (OVCAR-5 ovarian): > 100 µM | TGI (RPMI-8226 leukemia): > 100 µM | TGI (SN12C renal): > 100 µM | TGI (OVCAR-8 ovarian): > 100 µM | TGI (SNB-19 CNS): > 100 µM | TGI (HCC-2998 colon): > 100 µM | TGI (EKVX NSCLC): > 100 µM | TGI (UO-31 renal): > 100 µM | TGI (HOP-62 NSCLC): > 100 µM | TGI (SK-MEL-2 melanoma): > 100 µM
